From ChEMBL document CHEMBL1153646, “Peptidomimetic inhibitors of p21ras farnesyltransferase: Hydrophobic functionalization leads to disruption of p21ras membrane association in whole cells” (Bioorg Med Chem Lett, 1994) come the findings set out here.

One may read the IC50 as the concentration needed to halve the response being measured.

The source made the active and inactive calls. The calls are words filed in the database; no cut-off is given here.

The target in assay [1] is Protein farnesyltransferase (Mus musculus) (UniProt Q61239+Q8K2I1). As to the kind of experiment: In vivo inhibition of p21ras-farnesyl transferase in NIH3T3 cells (No inhibition). The assay is classed as functional.
For assay [2], the target named is Protein farnesyltransferase (Homo sapiens, UniProt P49354+P49356). As to the kind of experiment: In vitro inhibition of [3H]FPP incorporation into recombinant P21ras of NIH3T3 cells by farnesyl transferase. The assay is classed as cell-based.

Take `COC(=O)[C@H](CCSC)NC(=O)c1cccc(CNC(=O)[C@H](CS)NC(C)=O)c1`: the inhibition entry in assay [1] was “inactive”. Also, in assay [2], the half-inhibitory concentration (IC50) was 100 µM.
Turning to `COC(=O)[C@H](CCSC)NC(=O)c1cccc(CNC(=O)[C@H](CSC(=O)OCc2ccccc2)NC(=O)OCc2ccccc2)c1`, in assay [2], the concentration for half-maximal inhibition (IC50) was determined as 100 µM.
As for `COC(=O)[C@H](CCSC)NC(=O)c1cccc(CNC(=O)[C@@H](N)CS)c1`, the IC50 in assay [2] is 18 µM.
Turning to `CSCC[C@H](NC(=O)c1cccc(CNC(=O)[C@H](CS)NC(=O)OCc2ccccc2)c1)C(=O)O`, the inhibition result in assay [1] was “inactive”. The half-maximal inhibitory concentration (IC50) in assay [2] stood at 14 µM.
With `CC[C@@H](C)[C@H](NC(=O)[C@@H](NC(=O)[C@H](CSC(=O)OCc1ccccc1)NC(=O)OCc1ccccc1)C(C)C)C(=O)N[C@@H](CCSC)C(=O)OC`, in assay [1], the inhibition result was “inactive”. For the same compound, in assay [2], the IC50 is 90 µM.
Regarding `CSCC[C@H](NC(=O)c1cccc(CNC(=O)[C@@H](N)CS)c1)C(=O)O`, the inhibition result in assay [1] is “inactive”. The half-maximal inhibitory concentration (IC50) in assay [2] turned out to be 0.38 µM.
As to `CC[C@H](C)[C@H](NC(=O)[C@@H](NC(=O)[C@@H](N)CS)C(C)C)C(=O)N[C@@H](CCSC)C(=O)O`, in assay [2], the IC50 came out at 0.34 µM.
